Assay results from ChEMBL document CHEMBL3885881, “DrugMatrix”.

Species on record: Rattus norvegicus
Test: DrugMatrix - Regimen: Daily Repeat
Format: toxicity, organism-based, Sprague-Dawley
Set-up: regimen Daily Repeat, gender Male, age 6-8 weeks
Conditions: in vivo, po, route oral GAVAGE, […]; for ABSOLUTE BASOPHIL / ABSOLUTE EOSINOPHIL / ABSOLUTE LYMPHOCYTE / ABSOLUTE MONOCYTE / ABSOLUTE SEGMENTED NEUTROPHIL / BASOPHIL / EOSINOPHIL / ERYTHROCYTE COUNT / HEMATOCRIT / HEMOGLOBIN / LEUKOCYTE COUNT / LYMPHOCYTE / MEAN CORPUSCULAR HEMOGLOBIN / MEAN CORPUSCULAR HEMOGLOBIN CONCENTRATION / MEAN CORPUSCULAR VOLUME / MONOCYTE / NEUTROPHIL / NUCLEATED RED BLOOD CELLS / PLATELET COUNT: tissue Blood; for ALANINE AMINOTRANSFERASE / ALBUMIN / ALKALINE PHOSPHATASE / ASPARTATE AMINOTRANSFERASE / BLOOD UREA NITROGEN / CARBON DIOXIDE / CHLORIDE / CHOLESTEROL / CREATINE PHOSPHOKINASE / CREATININE / GLUCOSE / LACTATE DEHYDROGENASE / LIPASE / PHOSPHORUS / POTASSIUM / SODIUM / TOTAL BILIRUBIN / TOTAL PROTEIN / URIC ACID: tissue Plasma
[1] = 2000 mg/kg, 72 h, dose level High, time 3 day
[2] = 2000 mg/kg, 120 h, dose level High, time 5 day
[3] = 72 h, dose 0.33 mg/Kg, dose level Low, time 3 day
[4] = 120 h, dose 0.33 mg/Kg, dose level Low, time 5 day

SMILES: COc1ccc2[nH]cc(CCNC(C)=O)c2c1 [MELATONIN]
- ABSOLUTE BASOPHIL [1]: 0 CELLS/uL
- ABSOLUTE EOSINOPHIL [1]: 23.67 CELLS/uL
- ABSOLUTE LYMPHOCYTE [1]: 9249.33 CELLS/uL
- ABSOLUTE MONOCYTE [1]: 250.67 CELLS/uL
- ABSOLUTE SEGMENTED NEUTROPHIL [1]: 1876.33 CELLS/uL
- BASOPHIL [1]: 0%
- EOSINOPHIL [1]: 0.33%
- ERYTHROCYTE COUNT [1]: 5.38 x10E6/uL
- HEMATOCRIT [1]: 32.93%
- HEMOGLOBIN [1]: 13.5 G/DL
- LEUKOCYTE COUNT [1]: 11.4 x10E3/uL
- LYMPHOCYTE [1]: 82.33%
- MEAN CORPUSCULAR HEMOGLOBIN [1]: 25.17 pg
- MEAN CORPUSCULAR HEMOGLOBIN CONCENTRATION [1]: 41.03 G/DL
- MEAN CORPUSCULAR VOLUME [1]: 61.27 fL
- MONOCYTE [1]: 2%
- NEUTROPHIL [1]: 15.33%
- NUCLEATED RED BLOOD CELLS [1]: 0 /100WBC
- PLATELET COUNT [1]: 1209.67 x10E3/uL
- ALANINE AMINOTRANSFERASE [1]: 115 u/L
- ALBUMIN [1]: 3.3 G/DL
- ALKALINE PHOSPHATASE [1]: 505.67 u/L
- ASPARTATE AMINOTRANSFERASE [1]: 128.33 u/L
- BLOOD UREA NITROGEN [1]: 15 mg/dL
- CARBON DIOXIDE [1]: 25.67 mmol/L
- CHLORIDE [1]: 100.33 MEQ/L
- CHOLESTEROL [1]: 84 mg/dL
- CREATINE PHOSPHOKINASE [1]: 757.33 u/L
- CREATININE [1]: 0.38 mg/dL
- GLUCOSE [1]: 155 mg/dL
- LACTATE DEHYDROGENASE [1]: 369.33 u/L
- LIPASE [1]: 11.67 u/L
- PHOSPHORUS [1]: 13.07 mg/dL
- POTASSIUM [1]: 6.08 MEQ/L
- SODIUM [1]: 140.4 MEQ/L
- TOTAL BILIRUBIN [1]: 0.5 mg/dL
- TOTAL PROTEIN [1]: 4.6 G/DL
- URIC ACID [1]: 1.43 mg/dL
- ABSOLUTE BASOPHIL [2]: 0 CELLS/uL
- ABSOLUTE EOSINOPHIL [2]: 0 CELLS/uL
- ABSOLUTE LYMPHOCYTE [2]: 18071 CELLS/uL
- ABSOLUTE MONOCYTE [2]: 251 CELLS/uL
- ABSOLUTE SEGMENTED NEUTROPHIL [2]: 1211.33 CELLS/uL
- BASOPHIL [2]: 0%
- EOSINOPHIL [2]: 0%
- ERYTHROCYTE COUNT [2]: 6.07 x10E6/uL
- HEMATOCRIT [2]: 38.13%
- HEMOGLOBIN [2]: 15.13 G/DL
- LEUKOCYTE COUNT [2]: 19.53 x10E3/uL
- LYMPHOCYTE [2]: 92.67%
- MEAN CORPUSCULAR HEMOGLOBIN [2]: 24.9 pg
- MEAN CORPUSCULAR HEMOGLOBIN CONCENTRATION [2]: 39.7 G/DL
- MEAN CORPUSCULAR VOLUME [2]: 62.77 fL
- MONOCYTE [2]: 1.33%
- NEUTROPHIL [2]: 6%
- NUCLEATED RED BLOOD CELLS [2]: 0 /100WBC
- PLATELET COUNT [2]: 1278.33 x10E3/uL
- ALANINE AMINOTRANSFERASE [2]: 124.67 u/L
- ALBUMIN [2]: 3.73 G/DL
- ALKALINE PHOSPHATASE [2]: 553.33 u/L
- ASPARTATE AMINOTRANSFERASE [2]: 154.67 u/L
- BLOOD UREA NITROGEN [2]: 19 mg/dL
- CARBON DIOXIDE [2]: 32 mmol/L
- CHLORIDE [2]: 100.33 MEQ/L
- CHOLESTEROL [2]: 99 mg/dL
- CREATINE PHOSPHOKINASE [2]: 788.67 u/L
- CREATININE [2]: 0.24 mg/dL
- GLUCOSE [2]: 136 mg/dL
- LACTATE DEHYDROGENASE [2]: 320.67 u/L
- LIPASE [2]: 12.33 u/L
- PHOSPHORUS [2]: 11.03 mg/dL
- POTASSIUM [2]: 6.53 MEQ/L
- SODIUM [2]: 142.13 MEQ/L
- TOTAL BILIRUBIN [2]: 0.4 mg/dL
- TOTAL PROTEIN [2]: 5.07 G/DL
- URIC ACID [2]: 1.2 mg/dL
- ABSOLUTE BASOPHIL [3]: 0 CELLS/uL
- ABSOLUTE EOSINOPHIL [3]: 0 CELLS/uL
- ABSOLUTE LYMPHOCYTE [3]: 12175.67 CELLS/uL
- ABSOLUTE MONOCYTE [3]: 180.67 CELLS/uL
- ABSOLUTE SEGMENTED NEUTROPHIL [3]: 1643.67 CELLS/uL
- BASOPHIL [3]: 0%
- EOSINOPHIL [3]: 0%
- ERYTHROCYTE COUNT [3]: 5.39 x10E6/uL
- HEMATOCRIT [3]: 34.47%
- HEMOGLOBIN [3]: 13.5 G/DL
- LEUKOCYTE COUNT [3]: 14 x10E3/uL
- LYMPHOCYTE [3]: 87.33%
- MEAN CORPUSCULAR HEMOGLOBIN [3]: 25.1 pg
- MEAN CORPUSCULAR HEMOGLOBIN CONCENTRATION [3]: 39.17 G/DL
- MEAN CORPUSCULAR VOLUME [3]: 64.03 fL
- MONOCYTE [3]: 1.33%
- NEUTROPHIL [3]: 11.33%
- NUCLEATED RED BLOOD CELLS [3]: 0 /100WBC
- PLATELET COUNT [3]: 1125.33 x10E3/uL
- ALANINE AMINOTRANSFERASE [3]: 65 u/L
- ALBUMIN [3]: 4 G/DL
- ALKALINE PHOSPHATASE [3]: 447.33 u/L
- ASPARTATE AMINOTRANSFERASE [3]: 76.67 u/L
- BLOOD UREA NITROGEN [3]: 13.33 mg/dL
- CARBON DIOXIDE [3]: 31 mmol/L
- CHLORIDE [3]: 102 MEQ/L
- CHOLESTEROL [3]: 74.33 mg/dL
- CREATINE PHOSPHOKINASE [3]: 191.33 u/L
- CREATININE [3]: 0.26 mg/dL
- GLUCOSE [3]: 163.33 mg/dL
- LACTATE DEHYDROGENASE [3]: 156.67 u/L
- LIPASE [3]: 10.33 u/L
- PHOSPHORUS [3]: 11.6 mg/dL
- POTASSIUM [3]: 6.23 MEQ/L
- SODIUM [3]: 142.1 MEQ/L
- TOTAL BILIRUBIN [3]: 0.2 mg/dL
- TOTAL PROTEIN [3]: 5.03 G/DL
- URIC ACID [3]: 1.47 mg/dL
- ABSOLUTE BASOPHIL [4]: 0 CELLS/uL
- ABSOLUTE EOSINOPHIL [4]: 0 CELLS/uL
- ABSOLUTE LYMPHOCYTE [4]: 12476.67 CELLS/uL
- ABSOLUTE MONOCYTE [4]: 229.67 CELLS/uL
- ABSOLUTE SEGMENTED NEUTROPHIL [4]: 1393.67 CELLS/uL
- BASOPHIL [4]: 0%
- EOSINOPHIL [4]: 0%
- ERYTHROCYTE COUNT [4]: 5.39 x10E6/uL
- HEMATOCRIT [4]: 32.43%
- HEMOGLOBIN [4]: 13.13 G/DL
- LEUKOCYTE COUNT [4]: 14.1 x10E3/uL
- LYMPHOCYTE [4]: 88.33%
- MEAN CORPUSCULAR HEMOGLOBIN [4]: 24.4 pg
- MEAN CORPUSCULAR HEMOGLOBIN CONCENTRATION [4]: 40.53 G/DL
- MEAN CORPUSCULAR VOLUME [4]: 60.23 fL
- MONOCYTE [4]: 1.67%
- NEUTROPHIL [4]: 10%
- NUCLEATED RED BLOOD CELLS [4]: 0 /100WBC
- PLATELET COUNT [4]: 1131.67 x10E3/uL
- ALANINE AMINOTRANSFERASE [4]: 56.33 u/L
- ALBUMIN [4]: 4.1 G/DL
- ALKALINE PHOSPHATASE [4]: 363.67 u/L
- ASPARTATE AMINOTRANSFERASE [4]: 76 u/L
- BLOOD UREA NITROGEN [4]: 16 mg/dL
- CARBON DIOXIDE [4]: 30 mmol/L
- CHLORIDE [4]: 102 MEQ/L
- CHOLESTEROL [4]: 64 mg/dL
- CREATINE PHOSPHOKINASE [4]: 170.33 u/L
- CREATININE [4]: 0.24 mg/dL
- GLUCOSE [4]: 163 mg/dL
- LACTATE DEHYDROGENASE [4]: 89.33 u/L
- LIPASE [4]: 10.67 u/L
- PHOSPHORUS [4]: 10.7 mg/dL
- POTASSIUM [4]: 5.96 MEQ/L
- SODIUM [4]: 142.07 MEQ/L
- TOTAL BILIRUBIN [4]: 0.17 mg/dL
- TOTAL PROTEIN [4]: 5.53 G/DL
- URIC ACID [4]: 1.3 mg/dL
